Source: ChEMBL document CHEMBL3611994, “Discovery of 4-benzoylamino-N-(prop-2-yn-1-yl)benzamides as novel microRNA-21 inhibitors” (Bioorg Med Chem, 2015)
The source made the active and inactive calls. The calls are words filed in the database; no cut-off is given here.

Legend:
Nucleic Acid [1] = test: Inhibition of microRNA-21 in human HeLa cells assessed as reduction in microRNA-21 expression at 10 uM incubated for 24 hrs by stem-loop RT-PCR method; format: cell-based
U-87 MG [2] = test: Inhibition of cell proliferation of human U87MG cells assessed as induction of retardation of cell proliferation at 10 uM incubated for 48 hrs by CFSE staining based FACS method; format: functional; details: U-87MG ATCC
HeLa [3] = test: Inhibition of cell proliferation of human HeLa cells assessed as induction of retardation of cell proliferation at 10 uM incubated for 48 hrs by CFSE staining based FACS method; format: functional
Nucleic Acid [4] = test: Inhibition of microRNA-21 in human HeLa cells assessed as reduction in microRNA-21 expression at 10 uM incubated for 6 to 48 hrs by stem-loop RT-PCR method; format: cell-based
Nucleic Acid [5] = test: Inhibition of microRNA-133 in human HeLa cells assessed as reduction in microRNA-21 expression at 10 uM incubated for 24 hrs by RT-qPCR method; format: cell-based
U-87 MG [6] = test: Inhibition of cell proliferation of human U87MG cells assessed as time required for cell doubling by measuring mean fluorescence intensity at 10 uM incubated for 48 hrs by CFSE staining based FACS method; format: functional; details: U-87MG ATCC
U-87 MG [7] = test: Induction of apoptosis in human U87MG cells assessed as early apoptotic cells level at 10 uM incubated for 48 hrs by Annexin V-FITC and propidium iodide staining based flow cytometry (reference value: 2%); format: functional, U-87MG ATCC
Nucleic Acid [8] = test: Inhibition of microRNA-148 in human HeLa cells assessed as reduction in microRNA-21 expression at 10 uM incubated for 24 hrs by RT-qPCR method; format: cell-based
U-87 MG [9] = test: Induction of apoptosis in human U87MG cells assessed as necrotic cells level at 10 uM incubated for 48 hrs by Annexin V-FITC and propidium iodide staining based flow cytometry (reference value: 1.3%); format: functional, U-87MG ATCC
HeLa [10] = test: Effect on universal miRNA biosynthesis pathway-related gene expression in human HeLa assessed as TARBP2 gene expression at 10 uM incubated for 24 hrs by RT-qPCR method; format: ADME, cell-based
Nucleic Acid [11] = test: Inhibition of microRNA-195 in human HeLa cells assessed as reduction in microRNA-21 expression at 10 uM incubated for 24 hrs by RT-qPCR method; format: cell-based
Nucleic Acid [12] = test: Inhibition of microRNA-152 in human HeLa cells assessed as reduction in microRNA-21 expression at 10 uM incubated for 24 hrs by RT-qPCR method; format: cell-based
HeLa [13] = test: Effect on universal miRNA biosynthesis pathway-related gene expression in human HeLa assessed as DGCR8 gene expression at 10 uM incubated for 24 hrs by RT-qPCR method; format: cell-based
Nucleic Acid [14] = test: Inhibition of microRNA-143 in human HeLa cells assessed as reduction in microRNA-21 expression at 10 uM incubated for 24 hrs by RT-qPCR method; format: cell-based
U-87 MG [15] = test: Inhibition of cell proliferation of human U87MG cells assessed as time required for cell doubling by measuring mean fluorescence intensity at 10 uM incubated for 48 hrs in presence of 50 uM H2O2 by CFSE staining based FACS method; format: functional; details: U-87MG ATCC
HeLa [16] = test: Induction of apoptosis in human HeLa cells assessed as late apoptotic cells level at 10 uM incubated for 48 hrs by Annexin V-FITC and propidium iodide staining based flow cytometry (reference value: 2.2%); format: functional
U-87 MG [17] = test: Induction of apoptosis in human U87MG cells assessed as viable cells level at 10 uM incubated for 48 hrs in presence of 50 uM H2O2 by Annexin V-FITC and propidium iodide staining based flow cytometry (reference value: 94.1%); format: functional, U-87MG ATCC
Nucleic Acid [18] = test: Inhibition of microRNA-126 in human HeLa cells assessed as reduction in microRNA-21 expression at 10 uM incubated for 24 hrs by RT-qPCR method; format: cell-based
HeLa [19] = test: Induction of apoptosis in human HeLa cells assessed as necrotic cells level at 10 uM incubated for 48 hrs by Annexin V-FITC and propidium iodide staining based flow cytometry (reference value: 1.2%); format: functional
HeLa [20] = test: Induction of apoptosis in human HeLa cells assessed as early apoptotic cells level at 10 uM incubated for 48 hrs in presence of 50 uM H2O2 by Annexin V-FITC and propidium iodide staining based flow cytometry (reference value: 2.9%); format: functional
HeLa [21] = test: Induction of apoptosis in human HeLa cells assessed as viable cells level at 10 uM incubated for 48 hrs by Annexin V-FITC and propidium iodide staining based flow cytometry (reference value: 93.7%); format: functional
HeLa [22] = test: Inhibition of cell proliferation of human HeLa cells assessed as induction of retardation of cell proliferation at 10 uM incubated for 48 hrs in presence of 50 uM H2O2 by CFSE staining based FACS method; format: functional
Nucleic Acid [23] = test: Inhibition of microRNA-145 in human HeLa cells assessed as reduction in microRNA-21 expression at 10 uM incubated for 24 hrs by RT-qPCR method; format: cell-based
HeLa [24] = test: Induction of apoptosis in human HeLa cells assessed as early apoptotic cells level at 10 uM incubated for 48 hrs by Annexin V-FITC and propidium iodide staining based flow cytometry (reference value: 2.9%); format: functional
U-87 MG [25] = test: Induction of apoptosis in human U87MG cells assessed as necrotic cells level at 10 uM incubated for 48 hrs in presence of 50 uM H2O2 by Annexin V-FITC and propidium iodide staining based flow cytometry (reference value: 1.3%); format: functional, U-87MG ATCC
Nucleic Acid [26] = test: Inhibition of microRNA-21 in human HeLa cells assessed as reduction in microRNA-21 expression at 2.5 to 20 uM incubated for 24 hrs by stem-loop RT-PCR method; format: cell-based
Nucleic Acid [27] = test: Inhibition of microRNA-21 in human HeLa cells assessed as increase in PDCD4 protein expression at 10 uM incubated for 48 hrs by Western blot method; format: cell-based
HeLa [28] = test: Inhibition of let-7a miRNA in human HeLa cells assessed as reduction in microRNA-21 expression at 10 uM incubated for 24 hrs by RT-qPCR method; format: cell-based
HeLa [29] = test: Effect on universal miRNA biosynthesis pathway-related gene expression in human HeLa assessed as AGO2 gene expression at 10 uM incubated for 24 hrs by RT-qPCR method; format: cell-based
U-87 MG [30] = test: Induction of apoptosis in human U87MG cells assessed as late apoptotic cells level at 10 uM incubated for 48 hrs by Annexin V-FITC and propidium iodide staining based flow cytometry (reference value: 2.6%); format: functional, U-87MG ATCC
U-87 MG [31] = test: Induction of apoptosis in human U87MG cells assessed as early apoptotic cells level at 10 uM incubated for 48 hrs in presence of 50 uM H2O2 by Annexin V-FITC and propidium iodide staining based flow cytometry (reference value: 2%); format: functional, U-87MG ATCC
Nucleic Acid [32] = test: Inhibition of microRNA-26 in human HeLa cells assessed as reduction in microRNA-21 expression at 10 uM incubated for 24 hrs by RT-qPCR method; format: cell-based
Nucleic Acid [33] = test: Inhibition of microRNA-25 in human HeLa cells assessed as reduction in microRNA-21 expression at 10 uM incubated for 24 hrs by RT-qPCR method; format: cell-based
U-87 MG [34] = test: Inhibition of cell proliferation of human U87MG cells assessed as induction of retardation of cell proliferation at 10 uM incubated for 48 hrs in presence of 50 uM H2O2 by CFSE staining based FACS method; format: functional; details: U-87MG ATCC
HeLa [35] = test: Induction of apoptosis in human HeLa cells assessed as late apoptotic cells level at 10 uM incubated for 48 hrs in presence of 50 uM H2O2 by Annexin V-FITC and propidium iodide staining based flow cytometry (reference value: 2.2%); format: functional
U-87 MG [36] = test: Induction of apoptosis in human U87MG cells assessed as late apoptotic cells level at 10 uM incubated for 48 hrs in presence of 50 uM H2O2 by Annexin V-FITC and propidium iodide staining based flow cytometry (reference value: 2.6%); format: functional, U-87MG ATCC
HeLa [37] = test: Effect on universal miRNA biosynthesis pathway-related gene expression in human HeLa assessed as DICER1 gene expression at 10 uM incubated for 24 hrs by RT-qPCR method; format: cell-based
Nucleic Acid [38] = test: Inhibition of microRNA-146 in human HeLa cells assessed as reduction in microRNA-21 expression at 10 uM incubated for 24 hrs by RT-qPCR method; format: cell-based
U-87 MG [39] = test: Induction of apoptosis in human U87MG cells assessed as viable cells level at 10 uM incubated for 48 hrs by Annexin V-FITC and propidium iodide staining based flow cytometry (reference value: 94.1%); format: functional, U-87MG ATCC
HeLa [40] = test: Effect on universal miRNA biosynthesis pathway-related gene expression in human HeLa assessed as DROSHA gene expression at 10 uM incubated for 24 hrs by RT-qPCR method; format: cell-based
HeLa [41] = test: Induction of apoptosis in human HeLa cells assessed as viable cells level at 10 uM incubated for 48 hrs in presence of 50 uM H2O2 by Annexin V-FITC and propidium iodide staining based flow cytometry (reference value: 93.7%); format: functional
HeLa [42] = test: Effect on universal miRNA biosynthesis pathway-related gene expression in human HeLa assessed as XPO5 gene expression at 10 uM incubated for 24 hrs by RT-qPCR method; format: cell-based
HeLa [43] = test: Induction of apoptosis in human HeLa cells assessed as necrotic cells level at 10 uM incubated for 48 hrs in presence of 50 uM H2O2 by Annexin V-FITC and propidium iodide staining based flow cytometry (reference value: 1.2%); format: functional

C#CCNC(=O)c1ccc(NC(=O)c2ccc(OC)cc2OC)cc1
inhibition (Nucleic Acid [1]): Active

C#CCNC(=O)c1ccc(NC(=O)c2cccc(I)c2)cc1
inhibition (Nucleic Acid [1]): Active

C#CCNC(=O)c1ccc(NC(=O)c2ccc(OC)c(OCc3ccccc3)c2)cc1
inhibition (Nucleic Acid [1]): Active

C#CCNC(=O)c1ccc(NC(=O)c2cccnc2)cc1
inhibition (Nucleic Acid [1]): Active

C#CCNC(=O)c1ccc(NC(=O)c2ccccc2Br)cc1
inhibition (U-87 MG [2]): Active | inhibition (HeLa [3]): Active | inhibition (Nucleic Acid [4]): Active | inhibition (Nucleic Acid [5]): inactive | inhibition (U-87 MG [6]): Active | Activity (U-87 MG [7]): 2.3% | inhibition (Nucleic Acid [8]): inactive | Activity (U-87 MG [9]): 1.7% | Activity (HeLa [10]): Non-toxic | inhibition (Nucleic Acid [11]): inactive | inhibition (Nucleic Acid [12]): inactive | Activity (HeLa [13]): Non-toxic | inhibition (Nucleic Acid [14]): inactive | inhibition (U-87 MG [15]): Active | Activity (HeLa [16]): 3.4% | Activity (U-87 MG [17]): 82.4% | inhibition (Nucleic Acid [1]): Active | inhibition (Nucleic Acid [18]): inactive | Activity (HeLa [19]): 1.5% | Activity (HeLa [20]): 8.9% | Activity (HeLa [21]): 91.6% | inhibition (HeLa [22]): Active | inhibition (Nucleic Acid [23]): inactive | Activity (HeLa [24]): 3.5% | Activity (U-87 MG [25]): 3.5% | inhibition (Nucleic Acid [26]): Active | inhibition (Nucleic Acid [27]): Active | inhibition (HeLa [28]): inactive | Activity (HeLa [29]): Non-toxic | Activity (U-87 MG [30]): 4% | Activity (U-87 MG [31]): 3.9% | inhibition (Nucleic Acid [32]): inactive | inhibition (Nucleic Acid [33]): inactive | inhibition (U-87 MG [34]): Active | Activity (HeLa [35]): 19.1% | Activity (U-87 MG [36]): 10.2% | Activity (HeLa [37]): Non-toxic | inhibition (Nucleic Acid [38]): inactive | Activity (U-87 MG [39]): 91.9% | Activity (HeLa [40]): Non-toxic | Activity (HeLa [41]): 67.5% | Activity (HeLa [42]): Non-toxic | Activity (HeLa [43]): 4.5%

C#CCNC(=O)c1ccc(/N=N/c2ccccc2)cc1
inhibition (Nucleic Acid [1]): Active | inhibition (Nucleic Acid [27]): Active

C#CCNC(=O)c1ccc(NC(=O)c2cc(OC)ccc2OC)cc1
inhibition (Nucleic Acid [1]): Active
